Laboratory results taken from patent US10165776B2, “Substituted pyrazolylpyrazole derivative and use of same as herbicide” (KYOYU AGRI CO., LTD., priority 2015, dated 2019).

Each compound was assayed on Digitaria ciliaris (assay: Weed foliar treatment test (Test 4, 4.0 to 5.0 leaf stage)). Settings: 10 g a.i./10 a; foliar spray at 4.0 to 5.0 leaf stage of Digitaria ciliaris (plant height 10 cm to 15 cm); 20 days at 25° C.
Format: in vivo
Experimental: (§1) Field soil was filled into a 1/4500 are pot followed by seeding with Digitaria ciliaris and Galinsoga parviflora, covering with soil and cultivating in a glass greenhouse at an average atmospheric temperature of 25° C. Wettable powders of Target Compound (I) shown in Table 1 prepared in compliance with the preparation examples were diluted with water to the prescribed amount of chemical and uniformly sprayed onto the weeds using 100 liters of sprayed water per 10 are when Digitaria ciliaris had grown to the 4.0 to 5.0 leaf stage (plant height: 10 cm to 15 cm). After treating for 20 days in a glass greenhouse at an average atmospheric temperature of 25° C., the herbicidal efficacy thereof was investigated. Evaluation of herbicidal efficacy was carried out in the same manner as the above-mentioned Test Example 1.

SMILES | herbicidal efficacy, Digitaria ciliaris
N#Cc1cnn(-c2nn3c(c2Cl)CCCC3)c1NC(=O)Cc1ccc(Cl)cc1 [Compound 16] | 10 (10: 100%)
COc1ccccc1CC(=O)Nc1c(C#N)cnn1-c1nn2c(c1Cl)CCCC2 [Compound 7] | 10 (10: 100%)
Cc1ccc(CC(=O)Nc2c(C#N)cnn2-c2nn3c(c2Cl)CCCC3)cc1 [Compound 13] | 10 (10: 100%)
N#Cc1cnn(-c2nn3c(c2Cl)CCCC3)c1NC(=O)Cc1ccc(Cl)cc1Cl [Compound 18] | 10 (10: 100%)

What follows are compounds tested on Galinsoga parviflora in the same assay as above. Settings: 10 g a.i./10 a; foliar spray at 4.0 to 5.0 leaf stage of Digitaria ciliaris (plant height 10 cm to 15 cm); 20 days at 25° C.
Format: in vivo
Experimental: as §1

SMILES | herbicidal efficacy, Galinsoga parviflora
N#Cc1cnn(-c2nn3c(c2Cl)CCCC3)c1NC(=O)Cc1ccc(Cl)cc1 [Compound 16] | 10 (10: 100%)
COc1ccccc1CC(=O)Nc1c(C#N)cnn1-c1nn2c(c1Cl)CCCC2 [Compound 7] | 10 (10: 100%)
Cc1ccc(CC(=O)Nc2c(C#N)cnn2-c2nn3c(c2Cl)CCCC3)cc1 [Compound 13] | 10 (10: 100%)
N#Cc1cnn(-c2nn3c(c2Cl)CCCC3)c1NC(=O)Cc1ccc(Cl)cc1Cl [Compound 18] | 10 (10: 100%)
